# Experiments:
# Coxsackievirus A16 = test: Antiviral activity against Coxsackievirus A16 TA271 infected in human RD cells assessed as inhibition of virus-induced cytopathic effect preincubated with viral suspension for 2 hrs followed by cell addition and measured after 24 hrs by CCK-8 assay; format: functional, cell-based
# [1] = Cytotoxicity against human RD cells assessed as reduction in cell viability after 12 hrs by CCK8 assay; format: cell-based
# [2] = Selectivity index, ratio of CC50 for cytotoxicity against human RD cells to EC50 for antiviral activity against Coxsackievirus A16 TA271 infected in human RD cells; format: toxicity, cell-based; conditions: read-out: Ratio CC50/EC50
smiles,measurement,setting,value
NC(=O)c1ncn([C@@H]2O[C@H](CO)[C@@H](O)[C@H]2O)n1 [RIBAVIRIN],Activity,Coxsackievirus A16,Dose-dependent effect
same,EC50,Coxsackievirus A16; Enterovirus A,144 µM
same,CC50 at 12 h,[1],1480 µM
same,selectivity ratio,[2],10.3

# From ChEMBL document CHEMBL4334442, “Effects of Acetylshikonin on the Infection and Replication of Coxsackievirus A16 in Vitro and in Vivo” (J Nat Prod, 2019)
